Source: patent US8138227B2, “Method for inhibiting or reversing non-enzymatic glycation” (Trustees of Dartmouth College, priority 2006, dated 2012)

Assay: Transglycation of glucose-ethylamine with thiolamines followed by 13C NMR
Conditions: 50 mM thiolamine, 20 mM G-E; for potency as transglycating agent (kinetics of decomposition of G-E and formation of thiazolidines): pH 7.25, room temperature; for conversion of G-E to thiazolidine (glucosyl-cysteamine / glucosyl-penicillamine): 250 mM HEPES pH 7.25, room temperature
Method: The reaction mixture (0.5 ml in a 5 mm NMR tube) included 250 mM HEPES, pH 7.25, 10% D2O (for the purpose of locking the NMR magnetic field) and 50 mM concentration of a compound of interest such as cysteine. The reaction was performed at room temperature and it was initiated by adding an aliquot of G-E to produce a final concentration of 20 mM at which time consecutive NMR spectra of 20-minute duration were acquired using 580 scans, 60° pulses and an interpulse delay of 2.065 seconds.
NMR spectra were obtained on the VARIAN UNITY-300 and -500 MHz machines. Spectra were analyzed using information from model compounds and chemical shift data known in the art (Neglia, et al. (1985) J. Biol. Chem. 260:5406-10; Mossine, et al. (1994) Carbohyd. Res. 262:257-70).
Studies of reactions involving Schiff bases are intrinsically difficult as these compounds are labile at physiological pH. As such, to unambiguously follow Shiff base reactions in real-time, ^13C NMR spectroscopy was employed. To utilize this technique efficiently, glucose-ethylamine (G-E) was synthesized and labeled with ^13C at the C-1 position of the glucose moiety and with ^15N at the amino group of the ethylamine as a model compound of glucosyl-lysine.
Due to the spin-spin coupling between the nuclei of neighboring ^15N and ^13C atoms, the ^13C-labeled C-1 peak of glucose appeared in the ^13C NMR spectrum as a doublet resonating at 90.00 ppm. The unique signature doublet in the ^13C NMR spectrum of G-E, its chemical shift as well as the distinct ^13C chemical shifts of the other glucose-nucleophile adducts allowed for real-time observation reactions between G-E and various nucleophiles since cleavage of the ethylamine-glucose bond results in loss of the G-E doublet and the concomitant formation of new peaks corresponding to the new glucose-nucleophile adducts, e.g., the endproducts of transglycation of G-E, with glycine, taurine, spermidine and N-acetylcysteine. Because all of these transglycation products are labile at physiological pHs, the reactions were carried at a slightly alkaline pH of 8.5 to stabilize the reactants and products sufficiently so they could be followed by NMR over a span of several hours.

| Compound | potency as transglycating agent (kinetics of decomposition of G-E and formation of thiazolidines) | conversion of G-E to thiazolidine (glucosyl-cysteamine / glucosyl-penicillamine) [%] |
| --- | --- | --- |
| N[C@@H](CS)C(=O)NCC(=O)O [cys-gly] | reasonably good transglycating agents |  |
| NCCS [cysteamine] | much more potent | 80 |
| N[C@@H](CS)C(=O)O [cysteine] | reasonably good transglycating agents |  |
| CC(C)(S)[C@@H](N)C(=O)O [penicillamine] | much more potent | 70 |
